Earlier results on five compounds are cited in patent US20190203187A1, “CHEMILUMINESCENT WETNESS INDICATOR FOR ABSORBENT PRODUCTS” (International Paper Company, priority 2014, published 2019).

Data set [1] concerns the target T1, Renilla Luciferase (Renilla reniformis, UniProt P27652).
T1 sequence (P27652 1-311): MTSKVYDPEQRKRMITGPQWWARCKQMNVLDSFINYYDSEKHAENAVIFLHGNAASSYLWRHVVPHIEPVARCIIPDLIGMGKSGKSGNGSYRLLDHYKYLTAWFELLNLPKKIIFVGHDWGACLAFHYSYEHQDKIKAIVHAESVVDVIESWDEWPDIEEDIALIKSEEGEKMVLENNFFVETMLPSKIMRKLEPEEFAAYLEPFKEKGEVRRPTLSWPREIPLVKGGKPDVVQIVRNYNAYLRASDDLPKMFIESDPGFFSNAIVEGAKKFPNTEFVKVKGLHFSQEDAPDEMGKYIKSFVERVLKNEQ

In data set [2] the test system is Gaussia luciferase (Gluc).
Data set [3] concerns the target T2, apoaequorin (Aequorea victoria, UniProt P07164).
T2 sequence (P07164 8-196): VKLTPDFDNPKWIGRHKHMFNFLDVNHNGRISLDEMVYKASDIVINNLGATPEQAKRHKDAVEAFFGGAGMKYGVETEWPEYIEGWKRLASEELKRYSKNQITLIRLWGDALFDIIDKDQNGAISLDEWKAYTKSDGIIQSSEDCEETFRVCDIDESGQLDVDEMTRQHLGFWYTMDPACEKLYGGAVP
To be noted: for luminescence intensity relative to coelenterazine (native form): coelenterazine-apoaequorin (aequorin) complex.

Take `O=c1c(Cc2ccccc2)nc2c(Cc3ccccc3)[nH]c(-c3ccccc3)cn1-2` [coelenterazine 400a, coelenterazine 400a (2-2′(4-dehydroxy)) coelenterazine]: the “quality as substrate for Renilla luciferase” value in data set [1] is on record as “good substrate”. The emission maximum in data set [1] (substrate for Renilla luciferase, BRET) is 400 nm. In addition, the “oxidation with Gaussia luciferase” value in data set [2] is “does not oxidize well”.

`Oc1ccc(Cc2nc3c(CC4CCCC4)nc(-c4ccc(O)cc4)cn3c2O)cc1` [coelenterazine cp]: the “luminescence intensity relative to coelenterazine (native form)” value in data set [3] is given as 15 times.

As to `Oc1ccc(Cc2nc3c(Cc4ccccc4)nc4c(n3c2O)CCc2cc(O)ccc2-4)cc1` [coelenterazine e], the “quality as substrate for apoaequorin” value in data set [3] is recorded as “poor substrates”.

For the compound `Oc1ccc(-c2cn3c(O)c(Cc4ccc(F)cc4)nc3c(CC3CCCC3)n2)cc1` [coelenterazine fcp], the “luminescence intensity relative to coelenterazine (native form)” value in data set [3] was 135 times. For the same compound, in data set [1], the “quality as substrate for Renilla luciferase” value is listed as “poor substrate”.

Regarding coelenterazine f, the “luminescence intensity relative to coelenterazine (native form)” value in data set [3] is 20 times. Also, in data set [3] (coelenterazine-apoaequorin complex), the “emission maximum longer than that of the native form” value is reported as “about 8 nm”.
